Assays:
[1] = target: Tyrosine-protein kinase ABL1 (Homo sapiens) (UniProt P00519); assay: Inhibition of phosphorylated ABL1 (unknown origin) assessed as residual activity at 1000 nM by KINOMEscan analysis relative to control
[2] = target: T1, Cytoplasmic tyrosine-protein kinase BMX (Homo sapiens) (UniProt P51813); assay: Inhibition of BMX (unknown origin) assessed as residual activity at 1000 nM by KINOMEscan analysis relative to control
T1 sequence (whole entry): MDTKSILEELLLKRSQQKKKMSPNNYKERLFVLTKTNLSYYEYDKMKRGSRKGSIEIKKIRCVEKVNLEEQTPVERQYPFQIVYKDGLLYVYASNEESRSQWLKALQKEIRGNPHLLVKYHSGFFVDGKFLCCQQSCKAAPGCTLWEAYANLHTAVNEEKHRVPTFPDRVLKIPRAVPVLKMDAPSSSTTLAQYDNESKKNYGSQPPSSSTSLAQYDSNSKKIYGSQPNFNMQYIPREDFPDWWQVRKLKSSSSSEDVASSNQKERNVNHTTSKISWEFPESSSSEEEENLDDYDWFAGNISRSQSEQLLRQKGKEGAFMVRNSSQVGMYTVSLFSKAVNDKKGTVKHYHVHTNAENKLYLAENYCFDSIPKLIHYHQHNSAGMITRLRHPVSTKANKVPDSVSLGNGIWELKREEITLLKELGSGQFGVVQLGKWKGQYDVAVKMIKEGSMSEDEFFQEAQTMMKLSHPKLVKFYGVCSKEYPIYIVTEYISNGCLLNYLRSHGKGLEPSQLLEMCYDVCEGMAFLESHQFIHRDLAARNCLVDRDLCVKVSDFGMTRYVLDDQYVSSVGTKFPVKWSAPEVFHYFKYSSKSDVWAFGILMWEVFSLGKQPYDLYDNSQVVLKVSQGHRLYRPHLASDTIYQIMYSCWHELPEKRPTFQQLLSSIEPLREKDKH

[3] = target: Receptor tyrosine-protein kinase erbB-3 (Homo sapiens) (UniProt P21860); assay: Inhibition of ERBB3 (unknown origin) assessed as residual activity at 1000 nM by KINOMEscan analysis relative to control
Chain of Receptor tyrosine-protein kinase erbB-3 (Homo sapiens) (P21860 whole entry): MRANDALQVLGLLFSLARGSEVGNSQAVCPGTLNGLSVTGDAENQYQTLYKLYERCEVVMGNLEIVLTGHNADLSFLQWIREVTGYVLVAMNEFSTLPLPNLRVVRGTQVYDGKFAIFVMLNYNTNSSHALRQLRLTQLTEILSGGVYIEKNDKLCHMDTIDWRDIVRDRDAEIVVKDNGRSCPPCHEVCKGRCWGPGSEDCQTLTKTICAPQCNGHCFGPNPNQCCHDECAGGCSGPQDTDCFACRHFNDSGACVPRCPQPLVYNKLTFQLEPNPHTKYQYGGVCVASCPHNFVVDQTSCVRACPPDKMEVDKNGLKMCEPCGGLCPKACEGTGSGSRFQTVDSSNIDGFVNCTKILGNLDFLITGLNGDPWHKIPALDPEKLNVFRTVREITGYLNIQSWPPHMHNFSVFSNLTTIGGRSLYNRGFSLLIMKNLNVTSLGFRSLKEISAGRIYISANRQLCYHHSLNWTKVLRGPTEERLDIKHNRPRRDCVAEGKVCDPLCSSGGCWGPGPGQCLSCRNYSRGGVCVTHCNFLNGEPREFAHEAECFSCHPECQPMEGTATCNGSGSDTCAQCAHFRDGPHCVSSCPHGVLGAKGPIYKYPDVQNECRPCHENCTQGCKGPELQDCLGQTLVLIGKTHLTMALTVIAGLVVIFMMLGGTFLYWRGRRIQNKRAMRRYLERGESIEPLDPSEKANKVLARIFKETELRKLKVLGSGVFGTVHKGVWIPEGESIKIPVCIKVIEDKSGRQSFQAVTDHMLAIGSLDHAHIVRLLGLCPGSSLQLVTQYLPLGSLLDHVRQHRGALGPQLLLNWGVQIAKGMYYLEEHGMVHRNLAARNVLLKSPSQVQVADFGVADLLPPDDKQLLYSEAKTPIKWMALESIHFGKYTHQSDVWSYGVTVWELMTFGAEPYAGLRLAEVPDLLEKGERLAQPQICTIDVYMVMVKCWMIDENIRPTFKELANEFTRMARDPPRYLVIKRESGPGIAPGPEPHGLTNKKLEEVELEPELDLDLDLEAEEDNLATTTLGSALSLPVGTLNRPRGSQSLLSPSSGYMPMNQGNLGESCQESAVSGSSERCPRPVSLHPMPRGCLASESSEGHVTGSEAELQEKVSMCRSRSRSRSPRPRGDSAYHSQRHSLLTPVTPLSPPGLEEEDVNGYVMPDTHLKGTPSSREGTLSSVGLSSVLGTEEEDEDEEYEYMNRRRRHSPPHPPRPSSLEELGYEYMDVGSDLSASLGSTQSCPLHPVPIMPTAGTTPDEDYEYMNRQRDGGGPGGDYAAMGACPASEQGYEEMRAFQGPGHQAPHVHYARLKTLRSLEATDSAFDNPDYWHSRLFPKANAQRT

[4] = target: T2, Interleukin-1 receptor-associated kinase 4 (Homo sapiens) (UniProt Q9NWZ3); assay: Inhibition of IRAK4 (unknown origin) assessed as residual activity at 1000 nM by KINOMEscan analysis relative to control
T2 sequence (whole entry): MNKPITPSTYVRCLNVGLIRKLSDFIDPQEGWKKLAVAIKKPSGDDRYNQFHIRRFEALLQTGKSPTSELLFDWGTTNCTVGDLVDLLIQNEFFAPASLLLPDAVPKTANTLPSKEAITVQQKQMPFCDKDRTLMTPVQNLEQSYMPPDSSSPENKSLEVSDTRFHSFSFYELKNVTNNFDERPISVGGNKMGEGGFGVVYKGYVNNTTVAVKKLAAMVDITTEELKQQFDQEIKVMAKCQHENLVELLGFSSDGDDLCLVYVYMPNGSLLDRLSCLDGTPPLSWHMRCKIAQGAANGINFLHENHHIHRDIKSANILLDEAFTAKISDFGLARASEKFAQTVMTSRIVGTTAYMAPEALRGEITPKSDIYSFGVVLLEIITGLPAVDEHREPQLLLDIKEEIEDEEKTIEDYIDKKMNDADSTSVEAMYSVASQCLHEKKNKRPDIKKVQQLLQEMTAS

[5] = target: Hepatocyte growth factor receptor (Homo sapiens) (UniProt P08581); assay: Inhibition of MET (unknown origin) assessed as residual activity at 1000 nM by KINOMEscan analysis relative to control
Chain of Hepatocyte growth factor receptor (Homo sapiens) (P08581 whole entry): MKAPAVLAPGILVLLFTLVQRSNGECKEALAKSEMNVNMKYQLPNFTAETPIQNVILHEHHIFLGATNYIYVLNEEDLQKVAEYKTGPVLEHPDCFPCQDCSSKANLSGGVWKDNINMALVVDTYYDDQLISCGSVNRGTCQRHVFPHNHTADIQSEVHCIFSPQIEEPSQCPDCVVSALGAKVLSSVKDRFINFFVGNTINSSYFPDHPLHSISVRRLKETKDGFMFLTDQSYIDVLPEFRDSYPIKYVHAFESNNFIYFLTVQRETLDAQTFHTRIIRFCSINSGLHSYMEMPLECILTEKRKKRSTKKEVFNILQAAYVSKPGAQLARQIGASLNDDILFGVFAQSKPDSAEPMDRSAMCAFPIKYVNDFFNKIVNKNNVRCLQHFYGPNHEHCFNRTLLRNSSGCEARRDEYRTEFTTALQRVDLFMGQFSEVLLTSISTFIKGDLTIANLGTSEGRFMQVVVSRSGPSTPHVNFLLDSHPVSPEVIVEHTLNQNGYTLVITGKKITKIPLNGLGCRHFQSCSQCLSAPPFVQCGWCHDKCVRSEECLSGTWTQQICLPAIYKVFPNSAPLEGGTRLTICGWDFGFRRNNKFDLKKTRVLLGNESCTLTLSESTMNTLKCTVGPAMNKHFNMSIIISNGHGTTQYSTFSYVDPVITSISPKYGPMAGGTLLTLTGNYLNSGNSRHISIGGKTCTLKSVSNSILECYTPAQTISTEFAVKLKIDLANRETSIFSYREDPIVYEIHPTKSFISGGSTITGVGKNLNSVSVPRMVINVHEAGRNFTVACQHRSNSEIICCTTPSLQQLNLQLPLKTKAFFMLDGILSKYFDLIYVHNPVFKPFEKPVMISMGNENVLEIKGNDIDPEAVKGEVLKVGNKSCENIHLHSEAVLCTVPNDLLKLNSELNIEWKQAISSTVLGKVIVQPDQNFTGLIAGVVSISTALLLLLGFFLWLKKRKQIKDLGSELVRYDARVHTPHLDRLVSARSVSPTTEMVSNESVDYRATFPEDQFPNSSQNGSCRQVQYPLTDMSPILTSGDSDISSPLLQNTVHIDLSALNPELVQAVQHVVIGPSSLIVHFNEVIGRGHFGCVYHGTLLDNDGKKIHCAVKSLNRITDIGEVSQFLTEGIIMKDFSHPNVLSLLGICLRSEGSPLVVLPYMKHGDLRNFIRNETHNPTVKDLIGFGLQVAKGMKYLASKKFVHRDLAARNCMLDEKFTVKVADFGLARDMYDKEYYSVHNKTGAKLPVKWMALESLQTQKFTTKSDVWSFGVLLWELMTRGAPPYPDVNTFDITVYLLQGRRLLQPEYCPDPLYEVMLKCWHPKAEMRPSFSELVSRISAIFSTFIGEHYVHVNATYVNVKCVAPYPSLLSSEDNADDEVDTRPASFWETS

[6] = target: Cyclin-dependent kinase 16 (Homo sapiens) (UniProt Q00536); assay: Inhibition of PCTK1 (unknown origin) assessed as residual activity at 1000 nM by KINOMEscan analysis relative to control
Chain of Cyclin-dependent kinase 16 (Homo sapiens) (Q00536 whole entry): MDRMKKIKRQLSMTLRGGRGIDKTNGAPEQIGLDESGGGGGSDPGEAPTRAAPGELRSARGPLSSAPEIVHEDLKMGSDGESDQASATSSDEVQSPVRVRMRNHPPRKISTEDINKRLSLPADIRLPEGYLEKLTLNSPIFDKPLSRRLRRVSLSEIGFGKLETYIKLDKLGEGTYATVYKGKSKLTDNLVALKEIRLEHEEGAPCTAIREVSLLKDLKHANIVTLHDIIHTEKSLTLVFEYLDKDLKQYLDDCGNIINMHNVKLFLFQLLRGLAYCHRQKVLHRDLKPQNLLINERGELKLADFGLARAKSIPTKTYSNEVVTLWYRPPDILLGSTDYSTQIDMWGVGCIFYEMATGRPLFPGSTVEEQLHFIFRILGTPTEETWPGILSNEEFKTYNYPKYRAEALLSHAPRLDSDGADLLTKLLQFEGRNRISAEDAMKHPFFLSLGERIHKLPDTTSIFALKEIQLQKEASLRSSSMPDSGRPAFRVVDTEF

[7] = target: T3, Serine/threonine-protein kinase TBK1 (Homo sapiens) (UniProt Q9UHD2); assay: Inhibition of TBK1 (unknown origin) assessed as residual activity at 1000 nM by KINOMEscan analysis relative to control
T3 sequence (whole entry): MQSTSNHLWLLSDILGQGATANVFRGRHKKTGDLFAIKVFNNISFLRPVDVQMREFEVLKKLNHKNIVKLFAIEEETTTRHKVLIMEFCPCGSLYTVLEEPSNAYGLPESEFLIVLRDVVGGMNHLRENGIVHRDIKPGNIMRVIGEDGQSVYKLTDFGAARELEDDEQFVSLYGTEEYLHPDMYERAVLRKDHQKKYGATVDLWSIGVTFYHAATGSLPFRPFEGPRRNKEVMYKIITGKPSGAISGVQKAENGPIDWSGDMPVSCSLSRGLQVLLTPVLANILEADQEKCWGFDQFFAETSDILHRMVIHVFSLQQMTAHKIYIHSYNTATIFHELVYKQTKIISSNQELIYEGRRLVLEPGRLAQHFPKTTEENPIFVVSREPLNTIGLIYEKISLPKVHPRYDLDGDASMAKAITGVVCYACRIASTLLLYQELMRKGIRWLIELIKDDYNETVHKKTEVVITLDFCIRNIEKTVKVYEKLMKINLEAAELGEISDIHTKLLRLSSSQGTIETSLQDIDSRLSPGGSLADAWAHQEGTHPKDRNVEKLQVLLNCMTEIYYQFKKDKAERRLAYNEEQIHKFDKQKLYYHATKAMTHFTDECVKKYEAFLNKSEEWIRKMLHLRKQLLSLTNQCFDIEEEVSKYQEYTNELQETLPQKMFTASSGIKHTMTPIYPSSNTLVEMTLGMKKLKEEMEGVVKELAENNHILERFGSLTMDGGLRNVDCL

[8] = target: T4, Testis-specific serine/threonine-protein kinase 1 (Homo sapiens) (UniProt Q9BXA7); assay: Inhibition of TSSK1B (unknown origin) assessed as residual activity at 1000 nM by KINOMEscan analysis relative to control
T4 sequence (whole entry): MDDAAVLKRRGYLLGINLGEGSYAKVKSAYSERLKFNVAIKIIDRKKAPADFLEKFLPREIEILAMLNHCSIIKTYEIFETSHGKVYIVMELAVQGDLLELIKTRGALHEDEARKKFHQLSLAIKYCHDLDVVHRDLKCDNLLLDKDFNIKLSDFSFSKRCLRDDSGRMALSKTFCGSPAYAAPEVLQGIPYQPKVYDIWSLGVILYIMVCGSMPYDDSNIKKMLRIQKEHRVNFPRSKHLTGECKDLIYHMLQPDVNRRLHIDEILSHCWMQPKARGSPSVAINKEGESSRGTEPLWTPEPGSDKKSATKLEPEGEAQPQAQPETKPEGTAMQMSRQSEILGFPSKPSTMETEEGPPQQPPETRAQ

[9] = target: Ribosomal protein S6 kinase alpha-4 (Homo sapiens) (UniProt O75676); assay: Inhibition of C-terminal RPS6KA4 […] domain 2 (unknown origin) assessed as residual activity at 1000 nM by KINOMEscan analysis relative to control
Chain of Ribosomal protein S6 kinase alpha-4 (Homo sapiens) (O75676 whole entry, looked up): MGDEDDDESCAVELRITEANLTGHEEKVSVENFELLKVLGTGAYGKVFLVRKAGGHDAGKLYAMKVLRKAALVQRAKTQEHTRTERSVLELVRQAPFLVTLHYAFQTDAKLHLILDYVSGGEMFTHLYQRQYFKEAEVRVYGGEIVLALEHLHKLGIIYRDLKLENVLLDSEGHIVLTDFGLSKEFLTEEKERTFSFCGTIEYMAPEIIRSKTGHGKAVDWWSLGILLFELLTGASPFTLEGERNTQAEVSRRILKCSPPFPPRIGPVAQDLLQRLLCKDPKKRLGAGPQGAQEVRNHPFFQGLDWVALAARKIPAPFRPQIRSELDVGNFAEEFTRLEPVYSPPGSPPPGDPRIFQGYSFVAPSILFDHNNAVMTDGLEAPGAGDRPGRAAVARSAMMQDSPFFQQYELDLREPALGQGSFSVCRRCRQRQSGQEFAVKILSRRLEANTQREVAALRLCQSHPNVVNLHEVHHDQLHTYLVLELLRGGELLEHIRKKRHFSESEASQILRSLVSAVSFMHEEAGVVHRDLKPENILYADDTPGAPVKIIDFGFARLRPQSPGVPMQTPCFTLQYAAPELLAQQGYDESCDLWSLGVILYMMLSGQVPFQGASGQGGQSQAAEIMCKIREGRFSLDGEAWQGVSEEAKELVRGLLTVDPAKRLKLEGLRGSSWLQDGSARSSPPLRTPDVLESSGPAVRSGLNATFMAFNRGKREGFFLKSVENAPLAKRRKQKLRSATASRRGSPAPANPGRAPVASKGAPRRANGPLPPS

Chain of Tyrosine-protein kinase ABL1 (Homo sapiens) (P00519 whole entry): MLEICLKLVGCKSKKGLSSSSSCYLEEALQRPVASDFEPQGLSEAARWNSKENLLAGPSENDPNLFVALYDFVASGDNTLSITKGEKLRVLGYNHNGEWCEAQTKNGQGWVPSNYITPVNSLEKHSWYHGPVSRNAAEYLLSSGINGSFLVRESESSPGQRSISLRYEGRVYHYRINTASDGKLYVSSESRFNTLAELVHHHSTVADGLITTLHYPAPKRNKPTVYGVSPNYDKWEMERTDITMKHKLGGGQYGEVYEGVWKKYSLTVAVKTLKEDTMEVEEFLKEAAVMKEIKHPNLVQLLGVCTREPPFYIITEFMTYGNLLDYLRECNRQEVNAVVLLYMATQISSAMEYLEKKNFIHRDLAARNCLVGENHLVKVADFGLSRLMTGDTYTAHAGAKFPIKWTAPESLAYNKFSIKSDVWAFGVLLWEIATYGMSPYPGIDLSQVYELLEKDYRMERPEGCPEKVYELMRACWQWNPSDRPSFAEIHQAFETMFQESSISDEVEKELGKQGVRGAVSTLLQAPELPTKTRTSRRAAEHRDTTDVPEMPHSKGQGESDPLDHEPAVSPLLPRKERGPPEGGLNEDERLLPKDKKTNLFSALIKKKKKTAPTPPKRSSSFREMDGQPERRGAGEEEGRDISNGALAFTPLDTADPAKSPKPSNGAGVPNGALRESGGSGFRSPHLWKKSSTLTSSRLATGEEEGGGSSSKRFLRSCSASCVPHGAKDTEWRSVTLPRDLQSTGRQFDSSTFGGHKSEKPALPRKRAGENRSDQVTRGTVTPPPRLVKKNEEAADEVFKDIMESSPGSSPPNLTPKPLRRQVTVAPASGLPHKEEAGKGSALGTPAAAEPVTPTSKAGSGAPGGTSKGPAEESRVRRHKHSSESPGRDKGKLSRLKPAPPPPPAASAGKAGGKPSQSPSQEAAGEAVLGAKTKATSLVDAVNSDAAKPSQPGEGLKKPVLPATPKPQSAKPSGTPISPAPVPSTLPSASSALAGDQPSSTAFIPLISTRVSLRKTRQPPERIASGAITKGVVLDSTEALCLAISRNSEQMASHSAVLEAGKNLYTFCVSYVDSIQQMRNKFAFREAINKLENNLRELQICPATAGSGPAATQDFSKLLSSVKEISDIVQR

Compound	Activity [1] [%]	Activity [2] [%]	Activity [3] [%]	Activity [4] [%]	Activity [5] [%]	Activity [6] [%]	Activity [7] [%]	Activity [8] [%]	Activity [9] [%]
COc1cc2nc(C)nc(N[C@H](C)c3cccc(-c4cn[nH]c4)c3)c2cc1OC	81	100	96	59	97	95	66	98	100
COc1cc2ncnc(N[C@H](C)c3cccc4ccccc34)c2cc1OC	97	97	92	83	100	88	100	100	82
